Results from ChEMBL document CHEMBL1142715, “Discovery of new tetracyclic tetrahydrofuran derivatives as potential broad-spectrum psychotropic agents” (J Med Chem, 2005).

Key:
Rattus norvegicus [1] = assay: In vivo effective dose to inhibit tryptamine-induced bilateral convulsions in rats; format: functional
Rattus norvegicus [2] = assay: In vivo effective dose for reversal of tryptamine-induced cyanosis in rats; format: functional
Mus musculus = assay: In vivo effective dose for reversal of RO-4-1284 induced hypothermia in mouse; format: functional
Rattus norvegicus [3] = species on record: Rattus norvegicus; assay: Effective dose for antagonistic activity against m-chlorophenyl-piperazine induced anxiety in rats; format: functional
Rattus norvegicus [4] = assay: In vivo effective dose to inhibit apomorphine induced agitation in rats upon subcutaneous administration; format: functional; details: sc
[5] = molecular target: Norepinephrine transporter (Rattus norvegicus, UniProt Q9WTR4); assay: Inhibition of [3H]nisoxetine binding to rat Norepinephrine transporter
Norepinephrine transporter, sequence (Q9WTR4 whole entry): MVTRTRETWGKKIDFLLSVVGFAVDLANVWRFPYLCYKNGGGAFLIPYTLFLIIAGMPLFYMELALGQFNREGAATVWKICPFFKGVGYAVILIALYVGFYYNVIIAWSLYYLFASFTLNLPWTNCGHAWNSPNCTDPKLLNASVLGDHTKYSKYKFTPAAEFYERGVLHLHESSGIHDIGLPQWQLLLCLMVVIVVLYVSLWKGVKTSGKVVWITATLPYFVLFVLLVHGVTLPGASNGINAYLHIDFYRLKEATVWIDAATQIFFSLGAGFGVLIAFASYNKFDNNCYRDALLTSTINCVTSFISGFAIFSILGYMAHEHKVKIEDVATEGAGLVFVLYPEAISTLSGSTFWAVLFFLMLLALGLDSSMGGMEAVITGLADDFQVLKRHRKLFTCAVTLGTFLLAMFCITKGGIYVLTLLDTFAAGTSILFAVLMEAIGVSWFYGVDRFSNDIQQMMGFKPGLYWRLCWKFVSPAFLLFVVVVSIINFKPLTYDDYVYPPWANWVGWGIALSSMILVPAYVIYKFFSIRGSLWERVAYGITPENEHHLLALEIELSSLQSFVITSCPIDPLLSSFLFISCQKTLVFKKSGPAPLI

[6] = molecular target: T1, Alpha-2C adrenergic receptor (Homo sapiens, UniProt P18825); assay: Inhibition of [3H]rauwolscine binding to Alpha-2C adrenergic receptor
T1 sequence (P18825 whole entry): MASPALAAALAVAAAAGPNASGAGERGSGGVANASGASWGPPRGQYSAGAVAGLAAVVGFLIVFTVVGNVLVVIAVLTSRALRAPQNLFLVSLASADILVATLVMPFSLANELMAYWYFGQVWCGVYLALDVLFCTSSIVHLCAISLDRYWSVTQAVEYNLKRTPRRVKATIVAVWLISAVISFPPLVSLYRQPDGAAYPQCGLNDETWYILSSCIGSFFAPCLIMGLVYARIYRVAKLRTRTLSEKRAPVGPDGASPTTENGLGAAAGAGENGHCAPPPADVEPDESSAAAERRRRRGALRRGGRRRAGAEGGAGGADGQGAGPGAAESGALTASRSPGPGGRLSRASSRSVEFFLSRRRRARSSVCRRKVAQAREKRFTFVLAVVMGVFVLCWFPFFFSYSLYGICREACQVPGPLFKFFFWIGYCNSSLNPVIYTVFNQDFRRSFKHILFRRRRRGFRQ

D(1A) dopamine receptor [7] = molecular target: D(1A) dopamine receptor (Homo sapiens, UniProt P21728); assay: Inhibition of [3H]SCH-23390 binding to human Dopamine receptor D1
D(1A) dopamine receptor (Homo sapiens, UniProt P21728), sequence (P21728 whole entry): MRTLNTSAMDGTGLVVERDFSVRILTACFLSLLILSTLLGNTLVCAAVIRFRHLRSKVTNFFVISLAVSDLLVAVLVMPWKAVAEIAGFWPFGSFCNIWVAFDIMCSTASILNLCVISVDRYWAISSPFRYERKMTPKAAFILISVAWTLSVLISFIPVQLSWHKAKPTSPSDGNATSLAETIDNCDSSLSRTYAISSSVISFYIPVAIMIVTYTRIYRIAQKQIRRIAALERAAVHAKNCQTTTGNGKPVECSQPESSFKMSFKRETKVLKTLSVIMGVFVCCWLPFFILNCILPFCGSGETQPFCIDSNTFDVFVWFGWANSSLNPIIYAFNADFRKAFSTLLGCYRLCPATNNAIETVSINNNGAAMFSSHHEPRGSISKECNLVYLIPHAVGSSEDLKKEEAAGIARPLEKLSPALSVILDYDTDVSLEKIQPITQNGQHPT

Histamine H1 receptor = Histamine H1 receptor (Homo sapiens, UniProt P35367)
Histamine H1 receptor, sequence (P35367 whole entry): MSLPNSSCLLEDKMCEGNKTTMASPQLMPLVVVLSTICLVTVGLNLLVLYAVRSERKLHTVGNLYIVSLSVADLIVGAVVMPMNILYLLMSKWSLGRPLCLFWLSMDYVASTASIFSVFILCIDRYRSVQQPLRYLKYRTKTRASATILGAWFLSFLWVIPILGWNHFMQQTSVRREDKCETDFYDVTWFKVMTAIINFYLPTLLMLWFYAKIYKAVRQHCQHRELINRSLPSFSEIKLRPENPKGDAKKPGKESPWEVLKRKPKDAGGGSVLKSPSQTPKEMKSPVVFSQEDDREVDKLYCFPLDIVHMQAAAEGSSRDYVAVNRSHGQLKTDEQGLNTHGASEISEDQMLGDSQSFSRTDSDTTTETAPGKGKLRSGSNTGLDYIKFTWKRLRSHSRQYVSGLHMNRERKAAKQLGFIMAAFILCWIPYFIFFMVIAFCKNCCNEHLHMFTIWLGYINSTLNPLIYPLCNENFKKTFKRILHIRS
Description: Inhibition of [3H]pyrilamine binding to human Histamine H1 receptor

Rattus norvegicus [8] = assay: In vivo effective dose for reversal of tryptamine-induced backward locomotion in rats; format: functional
D(3) dopamine receptor = D(3) dopamine receptor (Homo sapiens, UniProt P35462)
D(3) dopamine receptor, sequence (P35462 whole entry): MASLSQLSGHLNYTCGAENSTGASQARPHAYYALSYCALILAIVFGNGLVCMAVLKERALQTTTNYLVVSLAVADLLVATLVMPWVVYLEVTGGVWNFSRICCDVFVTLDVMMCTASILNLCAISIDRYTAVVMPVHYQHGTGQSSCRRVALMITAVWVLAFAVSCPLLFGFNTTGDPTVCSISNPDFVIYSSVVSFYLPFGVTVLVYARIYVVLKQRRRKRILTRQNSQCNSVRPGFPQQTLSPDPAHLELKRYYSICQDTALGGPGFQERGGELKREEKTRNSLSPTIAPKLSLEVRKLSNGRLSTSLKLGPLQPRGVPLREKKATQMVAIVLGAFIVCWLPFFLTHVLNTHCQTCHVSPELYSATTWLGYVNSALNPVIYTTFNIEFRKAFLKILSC
Description: Inhibition of [125I]iodosulpiride binding to human Dopamine receptor D3

[9] = molecular target: T2, 5-hydroxytryptamine receptor 2C (Homo sapiens, UniProt P28335)
T2 sequence (P28335 whole entry): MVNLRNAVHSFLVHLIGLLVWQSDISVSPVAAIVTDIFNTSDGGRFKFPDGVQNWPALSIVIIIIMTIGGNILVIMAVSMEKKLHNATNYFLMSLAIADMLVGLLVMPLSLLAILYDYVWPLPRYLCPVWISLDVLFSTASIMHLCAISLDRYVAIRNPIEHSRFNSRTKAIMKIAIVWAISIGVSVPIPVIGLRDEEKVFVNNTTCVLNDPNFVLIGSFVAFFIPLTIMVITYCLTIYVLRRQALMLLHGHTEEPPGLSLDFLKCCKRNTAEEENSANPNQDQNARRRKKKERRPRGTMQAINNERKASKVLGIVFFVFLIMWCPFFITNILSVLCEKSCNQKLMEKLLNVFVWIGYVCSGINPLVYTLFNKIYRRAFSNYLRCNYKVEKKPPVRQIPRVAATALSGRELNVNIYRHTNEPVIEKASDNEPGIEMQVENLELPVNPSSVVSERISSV
Description: Inhibition of [3H]mesulergine binding to human 5-hydroxytryptamine 2C receptor

[10] = molecular target: T3, Alpha-2A adrenergic receptor (Homo sapiens, UniProt P08913)
T3 sequence (P08913 whole entry): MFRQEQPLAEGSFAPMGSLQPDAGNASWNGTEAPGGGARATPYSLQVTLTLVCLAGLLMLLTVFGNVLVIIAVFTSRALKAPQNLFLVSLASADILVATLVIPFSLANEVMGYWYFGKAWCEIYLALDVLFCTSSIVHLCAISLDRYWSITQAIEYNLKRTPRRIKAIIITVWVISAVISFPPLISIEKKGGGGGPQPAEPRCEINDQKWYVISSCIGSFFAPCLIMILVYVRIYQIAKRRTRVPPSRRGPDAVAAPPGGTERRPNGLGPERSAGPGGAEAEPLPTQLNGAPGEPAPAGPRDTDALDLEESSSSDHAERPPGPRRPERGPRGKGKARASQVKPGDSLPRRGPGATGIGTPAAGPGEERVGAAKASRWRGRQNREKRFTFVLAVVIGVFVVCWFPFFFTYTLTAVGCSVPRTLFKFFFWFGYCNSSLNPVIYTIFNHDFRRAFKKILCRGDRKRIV
Description: Inhibition of [3H]rauwolscine binding to Alpha-2A adrenergic receptor

[11] = molecular target: 5-hydroxytryptamine receptor 7 (Homo sapiens, UniProt P34969)
5-hydroxytryptamine receptor 7, sequence (P34969 whole entry): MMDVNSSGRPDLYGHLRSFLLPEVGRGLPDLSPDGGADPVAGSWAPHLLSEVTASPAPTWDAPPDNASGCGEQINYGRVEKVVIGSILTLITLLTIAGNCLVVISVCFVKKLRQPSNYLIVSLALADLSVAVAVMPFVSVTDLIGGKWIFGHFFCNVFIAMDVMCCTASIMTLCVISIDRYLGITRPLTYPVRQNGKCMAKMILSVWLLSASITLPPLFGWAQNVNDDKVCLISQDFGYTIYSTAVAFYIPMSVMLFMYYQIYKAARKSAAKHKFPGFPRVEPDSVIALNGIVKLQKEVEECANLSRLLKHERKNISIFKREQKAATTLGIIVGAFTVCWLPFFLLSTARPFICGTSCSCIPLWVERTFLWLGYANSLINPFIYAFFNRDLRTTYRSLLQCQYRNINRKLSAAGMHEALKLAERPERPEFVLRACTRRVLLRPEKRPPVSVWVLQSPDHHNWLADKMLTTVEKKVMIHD
Description: Inhibition of [3H]5-HT binding to human 5-hydroxytryptamine 7 receptor

[12] = molecular target: T4, Adrenergic receptor alpha-1 (Rattus norvegicus, UniProt P15823+P23944+P43140)
T4 sequence (P15823 whole entry): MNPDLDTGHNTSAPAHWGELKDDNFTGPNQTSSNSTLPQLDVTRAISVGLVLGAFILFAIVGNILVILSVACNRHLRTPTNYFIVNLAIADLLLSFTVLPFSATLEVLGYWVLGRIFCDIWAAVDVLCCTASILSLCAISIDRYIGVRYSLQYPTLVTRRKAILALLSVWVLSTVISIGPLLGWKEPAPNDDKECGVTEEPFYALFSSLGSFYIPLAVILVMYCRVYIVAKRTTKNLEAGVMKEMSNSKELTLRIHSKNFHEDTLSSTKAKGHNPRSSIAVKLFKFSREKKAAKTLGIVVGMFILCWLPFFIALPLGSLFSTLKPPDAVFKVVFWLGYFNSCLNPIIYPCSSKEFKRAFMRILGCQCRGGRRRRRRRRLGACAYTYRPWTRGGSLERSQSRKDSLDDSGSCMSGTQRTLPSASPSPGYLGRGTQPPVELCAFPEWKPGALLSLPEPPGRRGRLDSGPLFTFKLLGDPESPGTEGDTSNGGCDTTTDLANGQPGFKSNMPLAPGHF
T4 sequence (P23944 whole entry): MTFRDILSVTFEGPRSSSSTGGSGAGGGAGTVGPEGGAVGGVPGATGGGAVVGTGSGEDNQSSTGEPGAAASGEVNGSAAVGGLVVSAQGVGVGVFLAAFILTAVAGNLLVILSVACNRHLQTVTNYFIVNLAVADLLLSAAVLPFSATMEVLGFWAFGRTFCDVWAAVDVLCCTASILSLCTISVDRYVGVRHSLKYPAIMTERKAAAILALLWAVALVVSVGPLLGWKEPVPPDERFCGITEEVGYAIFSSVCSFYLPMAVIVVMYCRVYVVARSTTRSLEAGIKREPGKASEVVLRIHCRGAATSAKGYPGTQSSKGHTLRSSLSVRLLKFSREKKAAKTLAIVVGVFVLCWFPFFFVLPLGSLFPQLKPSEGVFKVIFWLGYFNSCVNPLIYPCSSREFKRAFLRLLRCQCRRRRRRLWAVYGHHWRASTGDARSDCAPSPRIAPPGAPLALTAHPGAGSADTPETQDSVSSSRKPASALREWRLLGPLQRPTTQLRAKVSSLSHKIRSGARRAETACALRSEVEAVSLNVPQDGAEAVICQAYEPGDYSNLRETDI
T4 sequence (P43140 whole entry): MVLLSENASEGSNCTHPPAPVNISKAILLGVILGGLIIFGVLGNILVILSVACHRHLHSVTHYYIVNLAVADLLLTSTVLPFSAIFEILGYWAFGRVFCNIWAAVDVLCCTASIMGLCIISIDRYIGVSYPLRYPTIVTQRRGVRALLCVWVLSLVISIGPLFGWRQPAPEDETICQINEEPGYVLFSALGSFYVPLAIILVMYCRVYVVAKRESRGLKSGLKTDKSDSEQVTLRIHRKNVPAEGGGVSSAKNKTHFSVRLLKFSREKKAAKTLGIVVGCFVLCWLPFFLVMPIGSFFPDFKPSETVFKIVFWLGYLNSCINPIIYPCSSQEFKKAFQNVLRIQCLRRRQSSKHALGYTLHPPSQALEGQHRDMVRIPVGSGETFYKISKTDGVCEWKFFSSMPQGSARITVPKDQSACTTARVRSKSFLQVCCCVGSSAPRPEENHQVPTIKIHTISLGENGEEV
Description: Inhibition of [3H]prazosin binding to rat Alpha-1 adrenergic receptor

D(1A) dopamine receptor [13] = molecular target: D(1A) dopamine receptor (Rattus norvegicus, UniProt P18901)
D(1A) dopamine receptor (Rattus norvegicus, UniProt P18901), sequence (P18901 whole entry): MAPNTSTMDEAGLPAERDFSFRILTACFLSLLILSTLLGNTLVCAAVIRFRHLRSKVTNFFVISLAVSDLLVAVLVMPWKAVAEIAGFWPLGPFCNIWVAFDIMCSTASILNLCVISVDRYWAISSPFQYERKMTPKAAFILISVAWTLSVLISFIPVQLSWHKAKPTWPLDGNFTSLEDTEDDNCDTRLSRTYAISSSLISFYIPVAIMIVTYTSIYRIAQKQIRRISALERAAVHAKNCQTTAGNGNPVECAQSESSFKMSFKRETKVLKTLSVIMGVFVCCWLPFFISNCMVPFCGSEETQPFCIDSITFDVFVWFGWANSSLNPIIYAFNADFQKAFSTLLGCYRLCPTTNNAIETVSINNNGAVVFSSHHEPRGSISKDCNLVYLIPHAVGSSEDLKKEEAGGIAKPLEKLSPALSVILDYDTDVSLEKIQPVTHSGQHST
Description: Inhibition of [3H]SCH-23390 binding to rat Dopamine receptor D1

Row | SMILES | Ki [6] | Ki (D(1A) dopamine receptor [7]) | Ki (Histamine H1 receptor) | Ki (D(3) dopamine receptor) | Ki [9] | Ki [10] | Ki [11] | Ki [12] | ED50 (Rattus norvegicus [1]) | ED50 (Rattus norvegicus [2]) | ED50 (Mus musculus) | ED50 (Rattus norvegicus [3]) | ED50 (Rattus norvegicus [4]) | Ki [5] | ED50 (Rattus norvegicus [8]) | Ki (D(1A) dopamine receptor [13])
1 | Cc1cc2c(s1)Nc1ccccc1N=C2N1CCN(C)CC1 [OLANZAPINE] |  |  |  |  |  |  |  |  | 0.086 mg/kg | 0.032 mg/kg | > 10 mg/kg | 0.44 mg/kg | 0.26 mg/kg | 0.958 µM |  | 
2 | CN1CCN2c3ccccc3Cc3ccccc3C2C1 (stereo unspecified) [MIANSERIN] | 0.0038 µM |  |  |  |  |  |  |  | 0.24 mg/kg | 0.18 mg/kg | > 40 mg/kg | 1.26 mg/kg | > 10 mg/kg | 0.101 µM | 0.55 mg/kg | 
3 | Cc1nc2n(c(=O)c1CCN1CCC(c3noc4cc(F)ccc34)CC1)CCCC2 [RISPERIDONE] |  |  |  |  |  |  |  |  | 0.037 mg/kg | 0.002 mg/kg | > 10 mg/kg | > 0.31 mg/kg | 0.17 mg/kg | > 5.45 µM | > 10 mg/kg | 
4 | CN1CCN2c3ncccc3Cc3ccccc3C2C1 (stereo unspecified) [MIRTAZAPINE] | 0.018 µM |  |  |  | 0.039 µM |  |  | 0.608 µM | 0.32 mg/kg | 0.8 mg/kg | > 40 mg/kg | 0.1 mg/kg | > 10 mg/kg | 1.64 µM | 0.5 mg/kg | 4.17 µM

The next lines start with results.

Row | Ki [6] | Ki (D(1A) dopamine receptor [7]) | Ki (Histamine H1 receptor) | Ki (D(3) dopamine receptor) | Ki [9] | Ki [10] | Ki [11] | Ki [12] | SMILES | ED50 (Rattus norvegicus [1]) | ED50 (Rattus norvegicus [2]) | ED50 (Mus musculus) | ED50 (Rattus norvegicus [3]) | ED50 (Rattus norvegicus [4]) | Ki [5] | ED50 (Rattus norvegicus [8]) | Ki (D(1A) dopamine receptor [13])
5 | 0.073 µM | 0.003 µM | 0.0006 µM | 0.019 µM | 0.00021 µM | 0.079 µM | 0.0062 µM | 0.0075 µM | CN(C)C[C@H]1CC2c3ccccc3Sc3ccc(F)cc3[C@H]2O1 (stereo in doubt; (-)-8d) | 0.0079 mg/kg | 0.013 mg/kg | 0.025 mg/kg | > 0.63 mg/kg | 0.13 mg/kg | 0.002 µM | 0.32 mg/kg | 
6 | 0.069 µM |  | 0.00043 µM | 0.084 µM |  | 0.126 µM | 0.013 µM | 0.108 µM | CN(C)C[C@H]1C[C@@H]2c3ccccc3Cc3ccccc3[C@H]2O1 | 0.02 mg/kg | 0.02 mg/kg | 0.2 mg/kg | 0.18 mg/kg | 2 mg/kg | 0.0078 µM | 1.2 mg/kg | 
7 |  |  |  |  | 0.017 µM |  |  |  | CN(C)C[C@@H]1CC2c3ccccc3Oc3ccc(Br)cc3[C@H]2O1 (stereo partly specified) |  |  |  |  |  | > 5.45 µM |  | 
8 | 0.059 µM | 0.0052 µM | 0.00052 µM | 0.0011 µM | < 0.00042 µM | 0.066 µM | 0.0066 µM | 0.0088 µM | CN(C)C[C@H]1CC2c3ccccc3Sc3ccc(F)cc3[C@H]2O1 (stereo in doubt; 8d) |  |  |  |  |  | 0.0016 µM |  | 
